For orientation: IC50 means the concentration at which inhibition is half-maximal.

Type in all cases: cell-based
Assay [1] deals with HCT116 cells. The assay can be described thus: MTT cell viability assay in HCT116 cells. As to the method:
The MTT assay was used to assess the effect of the compounds on cell viability. […] Subsequently, the culture medium was switched with a new medium containing DMSO (control) or the compound at a specified concentration. […] The plates were then incubated for 1 h at 37 °C. After this time, the supernatant was aspirated, and the formazan crystals were dissolved in 100 μL of DMSO in each well. Relative cell viability was calculated by measuring absorbance at 570 nm using a Benchmark Plus Microplate Reader (Bio-Rad Laboratories, Hercules, CA, USA).
(In general: Tetrazolium dyes change colour on reduction, which living cells bring about.)

Assay [2] relates to SW620 cells. The assay can be described thus: MTT cell viability assay in SW620 cells. Conditions: Homo sapiens, SW-620, 72 h, read-out: IC50 SW620. As to the method: (§1) The MTT assay was used to assess the effect of the compounds on cell viability. For this purpose, A375 (1500 cells per well), BJ (10 000 cells per well), Caco-2 (4000 cells per well), HCT116 (3000 cells per well), Mia Paca-2 (2000 cells per well), SW480 (6000 cells per well), and SW620 (8000 cells per well) cells were seeded in 96-well plates and incubated for 24 h. Subsequently, the culture medium was switched with a new medium containing DMSO (control) or the compound at a specified concentration. Following a 72 h incubation period, the supernatant was aspirated, and 100 μL of a mixture (1 : 1) of filtered MTT solution (1 mg per mL PBS) and FBS-free medium was added. The plates were then incubated for 1 h at 37 °C. After this time, the supernatant was aspirated, and the formazan crystals were dissolved in 100 μL of DMSO in each well. Relative cell viability was calculated by measuring absorbance at 570 nm using a Benchmark Plus Microplate Reader (Bio-Rad Laboratories, Hercules, CA, USA). Results are presented as the mean ± standard deviation (SD) of IC50 values, determined by nonlinear regression analysis of dose–response curves (log(inhibitor) vs. response with variable slope (four parameters)) using GraphPad Prism 9 software (GraphPad Software, San Diego, CA, USA).

Assay [3] concerns Caco-2 cells. The assay is described as follows: MTT cell viability assay in Caco-2 cells. The note with it: Homo sapiens, Caco-2, 72 h, read-out: IC50 Caco-2. On the procedure:
as §1

In assay [4] the test system is A375 cells. The assay is described as follows: MTT cell viability assay in A375 cells. Conditions: Homo sapiens, A-375, 72 h, read-out: IC50 A375. As to the method:
as §1

The test system of assay [5] is BJ cells. The assay is described as follows: MTT cell viability assay in non-tumoral BJ fibroblasts. As to the method:
as §1

The test system of assay [6] is SW480 cells. The assay is described as follows: Cell cycle assay (PI, flow cytometry). On the procedure:
To validate this hypothesis, compound 17 was administered at 6.3 μM to SW480 cells and incubated for 24, 48, and 72 h. Following each incubation period, the cells were fixed and permeabilized with 70% cold ethanol and stained with PI before flow cytometry analysis. At 24 h, compound 17 caused cell cycle arrest at the G0/G1 phase, as evidenced by a significant increase in the percentage of SW480 cells, from 54% in the control group to 66% in the treated group (Fig. 6). […] At 72 h, compound 17 had no impact on the cell cycle of SW480 cells, as observed in Fig. 6.
SW480 cells were seeded, treated, incubated, and collected, as described for the apoptosis assay. After centrifugation, the cells were resuspended in 500 μL DPBS, added dropwise to 4.5 mL of 70% (v/v) cold ethanol, and stored at −20 °C for at least 4 h. Each cell suspension was centrifuged, washed with cold DPBS, and resuspended in 350 μL DPBS and 10 μL RNase (10 mg mL^−1). After 1 h of incubation at 37 °C with agitation, the cells were stained with 20 μL of PI solution (1 mg mL^−1). A Gallios flow cytometer (Beckman Coulter, Brea, CA, USA) at a wavelength of 488 nm was used for FACS analysis. Data from 1 × 10^4 cells were collected, and a multicycle software (Phoenix Flow Systems, San Diego, CA, USA) was used for cell cycle analysis.
On the technique in general: Flow cytometry measures light scatter and fluorescence of single cells or particles in a stream.

The subject of assay [7] is CDK6. The assay can be described thus: Western blot of CDK6 levels in SW480 cells. Conditions: SW480, 6.3 μM, relative to control. As to the method:
(§2) SW480 cells were seeded in 6-well plates and treated as described in the previous subsection. After 24, 48 or 72 h of incubation, adherent cells were washed twice with ice-cold DPBS and incubated with lysis buffer (0.2% Triton X-100, 0.5 mM sodium deoxycholate, 1 mM Na-EDTA, 1 mM DTT, 20 mM Tris–HCl (pH 7.5), 0.5% phosphatases inhibitor cocktail, and 1% proteases inhibitor cocktail) for 30 min at 4 °C. The cells were scraped, sonicated, and centrifuged at 120 00 × g (20 min at 4 °C). […] The gels were then transferred to PVDF membranes, which were blocked with 5% skim milk in PBS-Tween-20 (0.1%) for 1 h at room temperature. Subsequently, the membranes were incubated with the primary antibodies for 30 mi at room temperature (actin) or overnight at 4 °C (CDK4, CDK6, cyclin A, Rb and SOD2/MnSOD). After incubation, the membranes were washed with PBS-Tween-20 (0.1%) and incubated with anti-mouse secondary antibody (40 min) or anti-rabbit secondary antibody (1 h) at room temperature. Finally, the membranes were washed with PBS-Tween-20 (0.1%) and treated with the Immobilon Western Chemiluminescent HRP Substrate Kit, and autoradiography was performed using an FPM-100A film processor (Fujifilm, Tokyo, Japan). western blot results were obtained from three independent experiments, except for cyclin A at 24 h (n = 2), Rb protein at 24 and 72 h (n = 2), and SOD2 (MnSOD) at 72 h (n = 2).
For orientation: A western blot detects proteins with antibodies after separation by electrophoresis.

In assay [8] the test system is cyclin A. The assay is described as follows: Western blot of cyclin A levels in SW480 cells. Conditions: SW480, 6.3 μM, relative to control. On the procedure:
as §2

For assay [9], the system named is Rb. The assay can be described thus: Western blot of Rb levels in SW480 cells. The note with it: SW480, 6.3 μM, 24, 48, and 72 h, relative to control. On the procedure: as §2
The subject of assay [10] is SOD2/MnSOD. The assay can be described thus: Western blot of SOD2/MnSOD levels in SW480 cells. The note with it: SW480, 6.3 μM, 24 and 72 h, relative to control. As to the method: as §2

`CC(=O)Oc1c(C(C)C)cc2c(c1OC(C)=O)[C@@]1(NC(=O)OCC(C)C)CCCC(C)(C)[C@@H]1CC2` [Compound 17, (4bR,8aS)-8,8-Dimethyl-4b-{[(2-methylpropoxy)carbonyl]amino}-2-(propan-2-yl)-4b,5,6,7,8,8a,9,10-octahydrophenanthrene-3,4-diyl diacetate]: the “fold more active than cisplatin” value in assay [1] (HCT116 cells, ratio of IC50 values) stood at 1.2 fold. Moreover, the concentration for half-maximal inhibition (IC50) is 17 ± 2 µM in assay [1] (Homo sapiens, HCT-116, 72 h, read-out: IC50 HCT116); 10 ± 1 µM in [2]; 16 ± 2 µM in assay [3]; 6.7 ± 0.5 µM in [4]; > 50 µM in assay [5] (Homo sapiens, BJ, MTT assay, 72 h incubation). Moreover, in assay [5] (BJ vs cancer cell lines), the “times less potent in BJ cells than in cancer cell lines (selectivity)” value is on record as 3–8 times. The “percentage of SW480 cells in G0/G1 phase” value in assay [6] (6.3 μM, 24 h (control 54%)) was determined as 66%. Further, the “percentage of SW480 cells in S phase” value in assay [6] (6.3 μM, 48 h (control 30%)) is 40%. In addition, in assay [6] (SW480, 6.3 μM, 72 h), the “effect on the cell cycle” value is on record as “no impact”. The CDK6 protein level result is “significantly reduced” in [7] (24 h) and “lower than those in the control group” in assay [7] (48 h). Also, the “cyclin A expression” value in assay [8] (24 h) was “decrease”; in [8] (48 h), “did not affect”. Also, the Rb protein level entry in [9] is recorded as “notable decrease”. Moreover, the “expression of SOD2/MnSOD” value in [10] is reported as “significantly increased”.

The values are drawn from PMC12498136, “Synthesis and biological evaluation of novel carnosic acid derivatives with anticancer activity” (RSC Advances, 2025).
